Assay results from paper PMC8086025, “A benzopyran with antiarrhythmic activity is an inhibitor of Kir3.1-containing potassium channels” (The Journal of Biological Chemistry, 2021).

Assays:
Type in all cases: cell-based
Nav1.5 = Nav1.5 (Homo sapiens, UniProt Q14524); experiment: Cloned cardiac ion channel manual patch clamp, Nav1.5; settings: 1Hz; MPC (manual patch clamp)
Method: (§1) For the data shown in Table S6, HEK293 cells expressing Kir3.1/4, Kir6.2/SUR2A (provided by Dr Andrew Tinker), Kir3.4, Kir2.1, and CHO cell lines stably expressing hERG KV1.5, KV4.3, NaV1.5 were maintained in media containing 10% FCS and appropriate selection antibiotic. Cells were grown either in suspension or in T-flasks and routinely passaged. Cells for patch clamping experiments were plated onto glass cover slips prior to use. Cells for automated patch clamping experiments were freshly prepared on each experimental day.
(§2) Standard giga-seal whole-cell patch-clamp techniques were performed at room temperature using glass pipettes (2–5 MΩ). HEKA EPC9/10 amplifiers and Pulse software were used for data acquisition. Series resistance was compensated by >70%. Experimental solutions are given under Supporting information. […]
(§3) Ionic current recordings were analyzed using HEKA software. […]
(§4) Inhibition of current (or leak-subtracted current) was calculated from steady-state current recorded in the absence (IControl) and presence of test-article (IIntervention). […]
(§5) Concentration-response data were fitted with a sigmoidal function of the form above, where YMin and YMax represent maximum and minimum current inhibition which were constrained to 100 and 0 respectively and x is the Log[DRUG (M)] based on GraphPad Prism analysis. % inhibition was calculated as in Equation 1. […]

Kir6.2/SUR2A = target: T1, Kir6.2/SUR2A (Homo sapiens, UniProt O60706+Q14654); experiment: Cloned cardiac ion channel patch clamp, Kir6.2/SUR2A
T1 construct: Andrew Tinker, UCL; host or cells: HEK293

Kir6.1/SUR2B = Kir6.1/SUR2B (Homo sapiens, UniProt O60706+Q15842); experiment: Cloned cardiac ion channel electrophysiology, Kir6.1/SUR2B
Method: page 24: APPENDIX 4- EQUATIONS %Inhibition = (1 - IIntervention/IControl) × 100 Equation 1 - Percentage Inhibition Inhibition of current (or leak-subtracted current) was calculated from steady-state current recorded in the absence (IControl) and presence of test-article (IIntervention). […]

Kv1.5 = Kv1.5 (Homo sapiens, UniProt P22460); experiment: Cloned cardiac ion channel manual patch clamp, Kv1.5; settings: MPC (manual patch clamp)
Method: as §1, §2, §3, §4, §5

Sequence of Kv1.5 (P22460 whole entry): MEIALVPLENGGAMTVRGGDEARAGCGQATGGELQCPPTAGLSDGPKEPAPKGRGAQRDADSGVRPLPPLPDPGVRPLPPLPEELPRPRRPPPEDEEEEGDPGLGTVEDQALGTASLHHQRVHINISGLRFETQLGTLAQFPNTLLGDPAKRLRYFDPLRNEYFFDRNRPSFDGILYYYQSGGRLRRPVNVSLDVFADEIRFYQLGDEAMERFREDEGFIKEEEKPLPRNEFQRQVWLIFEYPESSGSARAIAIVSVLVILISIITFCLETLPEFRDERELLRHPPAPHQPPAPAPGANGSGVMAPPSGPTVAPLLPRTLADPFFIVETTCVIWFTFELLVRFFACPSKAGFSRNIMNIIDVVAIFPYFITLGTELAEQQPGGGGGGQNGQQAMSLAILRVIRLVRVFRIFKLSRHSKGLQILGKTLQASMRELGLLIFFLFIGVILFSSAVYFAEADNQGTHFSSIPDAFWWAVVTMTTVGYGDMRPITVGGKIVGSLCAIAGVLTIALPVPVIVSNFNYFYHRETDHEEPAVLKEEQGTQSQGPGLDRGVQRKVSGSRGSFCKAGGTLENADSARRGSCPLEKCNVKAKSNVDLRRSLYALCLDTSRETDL
Sequence of Nav1.5 (Q14524 whole entry): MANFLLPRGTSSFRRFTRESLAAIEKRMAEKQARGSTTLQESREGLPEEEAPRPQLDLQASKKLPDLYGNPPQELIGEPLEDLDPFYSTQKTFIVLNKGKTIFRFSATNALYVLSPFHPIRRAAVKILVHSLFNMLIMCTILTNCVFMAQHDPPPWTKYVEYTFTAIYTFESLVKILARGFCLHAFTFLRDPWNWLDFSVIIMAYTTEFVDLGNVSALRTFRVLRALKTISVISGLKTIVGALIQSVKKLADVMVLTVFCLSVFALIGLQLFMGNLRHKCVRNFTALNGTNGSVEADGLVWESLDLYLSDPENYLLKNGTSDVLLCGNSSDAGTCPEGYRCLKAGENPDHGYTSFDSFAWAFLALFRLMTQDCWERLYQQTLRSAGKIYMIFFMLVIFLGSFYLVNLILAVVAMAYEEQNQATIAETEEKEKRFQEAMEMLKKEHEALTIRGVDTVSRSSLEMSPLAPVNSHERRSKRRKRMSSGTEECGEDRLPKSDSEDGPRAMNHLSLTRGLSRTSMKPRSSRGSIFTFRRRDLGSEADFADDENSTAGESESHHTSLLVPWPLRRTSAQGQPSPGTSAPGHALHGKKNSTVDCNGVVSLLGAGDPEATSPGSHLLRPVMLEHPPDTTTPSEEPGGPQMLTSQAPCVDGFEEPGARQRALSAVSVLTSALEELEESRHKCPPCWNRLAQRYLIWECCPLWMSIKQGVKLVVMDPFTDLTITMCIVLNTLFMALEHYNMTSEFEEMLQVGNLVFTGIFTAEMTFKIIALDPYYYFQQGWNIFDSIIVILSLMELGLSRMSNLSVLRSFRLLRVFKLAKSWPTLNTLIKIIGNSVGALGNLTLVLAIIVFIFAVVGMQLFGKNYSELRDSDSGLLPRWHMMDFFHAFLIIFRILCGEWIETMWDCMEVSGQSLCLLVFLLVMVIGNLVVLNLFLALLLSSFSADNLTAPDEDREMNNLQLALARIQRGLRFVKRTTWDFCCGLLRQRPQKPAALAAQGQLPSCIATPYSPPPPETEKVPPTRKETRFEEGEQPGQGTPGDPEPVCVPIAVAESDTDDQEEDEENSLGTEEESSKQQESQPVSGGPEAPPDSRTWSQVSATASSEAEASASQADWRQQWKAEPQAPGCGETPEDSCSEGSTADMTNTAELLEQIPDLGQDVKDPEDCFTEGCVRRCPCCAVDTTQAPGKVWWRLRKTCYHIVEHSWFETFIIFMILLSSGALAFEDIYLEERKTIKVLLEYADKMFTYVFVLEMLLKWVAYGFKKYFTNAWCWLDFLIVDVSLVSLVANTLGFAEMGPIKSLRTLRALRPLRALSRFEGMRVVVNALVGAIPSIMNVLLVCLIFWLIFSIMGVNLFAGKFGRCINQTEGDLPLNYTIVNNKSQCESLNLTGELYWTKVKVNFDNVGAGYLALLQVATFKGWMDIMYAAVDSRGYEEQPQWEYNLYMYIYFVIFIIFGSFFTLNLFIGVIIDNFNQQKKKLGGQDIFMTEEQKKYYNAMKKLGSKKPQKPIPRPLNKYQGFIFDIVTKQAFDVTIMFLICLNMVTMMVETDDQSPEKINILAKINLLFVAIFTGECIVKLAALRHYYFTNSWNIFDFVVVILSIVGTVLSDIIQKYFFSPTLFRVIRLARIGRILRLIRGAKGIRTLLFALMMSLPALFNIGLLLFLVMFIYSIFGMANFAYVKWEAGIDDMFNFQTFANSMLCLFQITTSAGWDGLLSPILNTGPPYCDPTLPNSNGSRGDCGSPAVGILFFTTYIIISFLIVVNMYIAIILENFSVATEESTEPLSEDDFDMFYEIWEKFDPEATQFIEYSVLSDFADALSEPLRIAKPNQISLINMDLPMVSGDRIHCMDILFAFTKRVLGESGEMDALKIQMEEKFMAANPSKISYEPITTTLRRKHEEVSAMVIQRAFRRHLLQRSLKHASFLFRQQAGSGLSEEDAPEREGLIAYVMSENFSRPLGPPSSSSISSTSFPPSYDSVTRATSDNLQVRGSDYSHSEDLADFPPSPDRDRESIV
Sequence of Kir6.1/SUR2B (Q15842 whole entry): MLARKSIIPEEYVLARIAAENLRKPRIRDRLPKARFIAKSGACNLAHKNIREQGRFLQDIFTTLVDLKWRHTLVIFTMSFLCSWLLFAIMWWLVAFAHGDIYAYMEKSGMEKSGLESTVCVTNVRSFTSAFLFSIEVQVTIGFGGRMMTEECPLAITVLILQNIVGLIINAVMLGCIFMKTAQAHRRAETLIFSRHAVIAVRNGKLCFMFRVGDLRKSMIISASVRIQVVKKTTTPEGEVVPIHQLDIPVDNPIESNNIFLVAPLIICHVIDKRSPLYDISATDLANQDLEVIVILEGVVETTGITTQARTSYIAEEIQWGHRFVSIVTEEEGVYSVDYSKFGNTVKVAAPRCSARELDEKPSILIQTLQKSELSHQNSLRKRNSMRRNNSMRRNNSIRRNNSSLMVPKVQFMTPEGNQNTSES
Sequence of Kir6.1/SUR2B (O60706 1-1549 isoform O60706-2): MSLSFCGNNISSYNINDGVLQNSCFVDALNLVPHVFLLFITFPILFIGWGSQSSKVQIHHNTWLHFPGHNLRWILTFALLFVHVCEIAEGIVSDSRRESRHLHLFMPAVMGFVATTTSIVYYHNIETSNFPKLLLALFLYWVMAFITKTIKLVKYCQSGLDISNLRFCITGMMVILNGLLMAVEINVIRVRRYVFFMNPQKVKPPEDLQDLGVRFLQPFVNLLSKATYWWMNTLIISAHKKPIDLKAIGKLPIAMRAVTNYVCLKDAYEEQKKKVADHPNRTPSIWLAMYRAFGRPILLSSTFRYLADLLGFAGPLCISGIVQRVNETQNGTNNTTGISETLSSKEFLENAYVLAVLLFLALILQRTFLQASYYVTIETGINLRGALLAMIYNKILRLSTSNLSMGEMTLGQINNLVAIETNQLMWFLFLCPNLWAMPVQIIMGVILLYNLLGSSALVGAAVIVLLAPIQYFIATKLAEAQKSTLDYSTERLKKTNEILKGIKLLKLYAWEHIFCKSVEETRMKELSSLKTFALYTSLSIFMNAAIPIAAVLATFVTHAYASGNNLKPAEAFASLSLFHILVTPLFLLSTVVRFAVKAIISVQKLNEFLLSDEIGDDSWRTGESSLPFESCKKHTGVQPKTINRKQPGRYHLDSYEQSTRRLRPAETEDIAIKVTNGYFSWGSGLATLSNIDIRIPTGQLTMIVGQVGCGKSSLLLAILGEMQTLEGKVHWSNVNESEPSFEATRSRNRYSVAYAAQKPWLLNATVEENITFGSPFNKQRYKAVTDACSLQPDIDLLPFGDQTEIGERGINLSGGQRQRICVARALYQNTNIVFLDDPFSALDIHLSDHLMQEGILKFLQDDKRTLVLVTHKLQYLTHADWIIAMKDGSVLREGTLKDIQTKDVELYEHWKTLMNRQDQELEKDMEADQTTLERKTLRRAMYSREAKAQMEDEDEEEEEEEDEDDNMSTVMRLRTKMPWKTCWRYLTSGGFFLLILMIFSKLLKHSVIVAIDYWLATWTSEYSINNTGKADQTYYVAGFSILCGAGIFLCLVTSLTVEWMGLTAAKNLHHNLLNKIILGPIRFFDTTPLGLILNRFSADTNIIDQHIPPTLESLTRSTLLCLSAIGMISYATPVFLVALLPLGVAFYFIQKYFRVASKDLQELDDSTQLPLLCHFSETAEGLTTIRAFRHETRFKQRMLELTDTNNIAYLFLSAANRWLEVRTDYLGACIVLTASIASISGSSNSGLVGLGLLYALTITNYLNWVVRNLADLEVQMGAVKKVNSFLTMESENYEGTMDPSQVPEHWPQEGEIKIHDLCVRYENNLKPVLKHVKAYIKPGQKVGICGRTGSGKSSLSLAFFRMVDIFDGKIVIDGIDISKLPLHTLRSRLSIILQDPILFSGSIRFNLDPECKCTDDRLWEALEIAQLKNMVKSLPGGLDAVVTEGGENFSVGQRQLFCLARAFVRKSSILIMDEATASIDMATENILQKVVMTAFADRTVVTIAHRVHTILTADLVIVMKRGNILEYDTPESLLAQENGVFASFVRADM

SMILES: Cc1cc(CO)nc2cc3c(cc12)OC(C)(C)[C@H](O)[C@H]3NCCc1ccccc1 [BP-G1, (3R,4S)-7-(hydroxymethyl)-2,2,9-trimethyl-4-(2-phenylethylamino)-3,4-dihydropyrano[2,3-g]quinolin-3-ol]
- IC50 (Nav1.5): > 10 µM
- IC50 (Kir6.2/SUR2A): > 10 µM
- IC50 (Kir6.1/SUR2B): 9.9 µM
- IC50 (Kv1.5): 16.3 µM
